Patent publication US10925867B2, “Immunotherapeutic dosing regimens comprising pomalidomide and an anti-CS1 antibody for treating cancer” (Bristol-Myers Squibb Company, priority 2015, dated 2021)
Where two headings read alike, the source gives them in different places.

Experiments:
multiple myeloma [1] = details: cited from earlier work
multiple myeloma [2] = details: treated multiple myeloma patients; cited from earlier work
[3] = tested on: refractory or relapsed and refractory MM; details: MM-003; cited from earlier work
OPM2 xenograft [4] = tested on: OPM2 xenograft
Description: Mice with established OPM2 xenograft tumors were randomized into 2 groups with 8 mice per group and were administered one of the following sets of regimens: (A) Control group was left untreated (filled circles), elotuzumab (0.5 mg/kg, twice weekly IP for 7 doses starting d16, open circles), dexamethasone (5 mg/kg, daily IP for 7 doses starting on d16, open triangles), elotuzumab plus dexamethasone combination (filled triangles), pomalidomide (5 mg/kg, daily for 5 days orally starting on d16 and then again for 5 days on d23) plus dexamethasone combination (dashes); or (B) Control group was left untreated (filled circles), elotuzumab (0.5 mg/kg, twice weekly IP for 7 doses starting d16, open circles), pomalidomide (5 mg/kg, daily for 5 days orally starting on d16 and then again for 5 days on d23, open squares), elotuzumab (0.5 mg/kg, twice weekly IP for 10 doses starting d16) plus pomalidomide combination (filled squares), elotuzumab (10 doses) plus pomalidomide plus dexamethasone combination (x's). The data are presented as means+/−standard deviation.
(§1) Mice with established OPM2 xenograft tumors were randomized into groups with 8 mice per group and were administered one of the following regimens: (A): untreated (control); (B): elotuzumab; (C): pomalidomide; (D): dexamethasone; (E): elotuzumab plus pomalidomide; (F): elotuzumab plus dexamethasone; (G): pomalidomide plus dexamethasone; or (H): elotuzumab plus pomalidomide plus dexamethasone. Data represent tumor weight measured in individual animals. Dosing route and regimen are described in FIG. 2 and Example 1.
(§2) Animals: All mice were obtained from Taconic Biosciences (Germantown, N.Y.), and maintained in ammonia-free environment in a defined and pathogen-free colony. All animal procedures were approved by the Bristol-Myers Squibb (BMS) Institutional Animal Care and Use Committee. The animal care and use program at BMS has been fully accredited by the Association for Assessment and Accreditation of Laboratory Animal Care International (AAALAC).
(§3) Animal Models: The human tumor xenograft OPM2 was grown in IcrTac scid mice (ICRPrkdcscid). Treated animals were checked daily for treatment related toxicity/mortality. Each group of animals was weighed before the initiation of treatment (Wt1) and then weighed again following the last treatment dose (Wt2). The difference in body weight (Wt2-Wt1) provides a measure of treatment-related toxicity. Additional weights were recorded at each measurement date to monitor toxicity.
(§4) Tumor response was determined by measurement of tumors with a caliper twice a week, until the tumors reached a predetermined “target” size of 1 gm. Tumor weights (mg) were estimated from the formula: Tumor weight=(length×width2)/2.
(§5) Tumor response end-point was expressed in terms of tumor cell kill and tumor growth inhibition. Tumor growth delay was defined as the difference in time (days) required for the treated tumors (T) to reach a predetermined target size compared to those in the control group (C). For this purpose tumor weight of a group was expressed as […] tumor weight (MTW).
(§6) Tumor cell kill was expressed in terms of log cell kill (LCK), represented by the equation LCK=[…] where tumor volume doubling time (TVDT) was first calculated with the formula: TVDT=Median time (days) for control tumor weight to reach target size−Median time (days) for control tumor weight to reach half the target size.

OPM2 xenograft [5] = tested on: OPM2 xenograft; remark: listed apart in the source
Description: FIGS. 4A-B. Study #2 (OPM2-16), Antitumor Activity, Elotuzumab Efficacy in Combination with Pomalidomide and Dexamethasone in OPM2 Multiple Myeloma Xenograft. Mice with established OPM2 xenograft tumors were randomized into 2 groups with 8 mice per group and were administered one of the following sets of regimens: (A) Control group was left untreated (filled circles), elotuzumab (0.5 mg/kg, twice weekly IP for 6 doses starting d12, open circles), dexamethasone (5 mg/kg, daily IP for 7 doses starting on d12, open triangles), elotuzumab (0.5 mg/kg, twice weekly IP for 8 doses starting d12) plus dexamethasone combination (filled triangles), pomalidomide (5 mg/kg, daily for 5 days orally starting on d12 and then again for 5 days on d19) plus dexamethasone combination (dashes); or (B) Control group was left untreated (filled circles), elotuzumab (0.5 mg/kg, twice weekly IP for 6 doses starting d12, open circles), pomalidomide (5 mg/kg, daily for 5 days orally starting on d12 and then again for 5 days on d19, open squares), elotuzumab (0.5 mg/kg, twice weekly IP for 8 doses starting d12) plus pomalidomide combination (filled squares), elotuzumab (0.5 mg/kg, twice weekly IP for 8 doses starting d12) plus pomalidomide plus dexamethasone combination (x's). The data are presented as means+/−standard deviation.
as §1, with “FIGS. 5A-H. Study #2 (OPM2-16), Anti Tumor Activity of Elotuzumab, Pomalidomide, and Dexamethasone as Single Agent and Combination Treatment in OPM2 Multiple Myeloma Xenograft tumor model. Mice” for “Mice”, “FIG. 4” for “FIG. 2”
as §2, §3, §4, §5, §6

[6] = three-drug induction: bortezomib-dexamethasone plus the named drug
[7] = in combination with dexamethasone as induction therapy before ASCT
[8] = Study #1, ELO 0.5, POM 5, DEX 5 mg/kg, mice of 8
[9] = Study #2, ELO 0.5, POM 5, DEX 5 mg/kg, mice of 8

## O=P1(N(CCCl)CCCl)NCCCO1 (stereo not drawn) [cyclophosphamide]
Multiple myeloma [1]; [6]
  rates of nearly CR: 39%

## O=C1CCC(N2C(=O)c3ccccc3C2=O)C(=O)N1 (stereo not drawn) [thalidomide]
Multiple myeloma [1]; [7]
  rates of nearly CR: 8%
Multiple myeloma [1]; [6]
  rates of nearly CR: 32%

## COc1cccc2c1C(=O)c1c(O)c3c(c(O)c1C2=O)C[C@@](O)(C(=O)CO)C[C@@H]3O[C@H]1C[C@H](N)[C@H](O)[C@H](C)O1 [doxorubicin]
Multiple myeloma [1]; [6]
  rates of nearly CR: 7%

## Nc1cccc2c1CN(C1CCC(=O)NC1=O)C2=O (stereo not drawn) [lenalidomide]
Multiple myeloma [1]; [7]
  rates of nearly CR: 15%
Multiple myeloma [1]; [6]
  rates of nearly CR: 57%
Multiple myeloma [2]
  response rate: 40%-50%

## CC(C)C[C@H](NC(=O)[C@H](Cc1ccccc1)NC(=O)c1cnccn1)B(O)O [bortezomib]
Multiple myeloma [1]; [7]
  rates of nearly CR: 16%
Multiple myeloma [2]
  response rate: 38%

## C[C@@H]1C[C@H]2[C@@H]3CCC4=CC(=O)C=C[C@]4(C)[C@@]3(F)[C@@H](O)C[C@]2(C)[C@@]1(O)C(=O)CO [Dexamethasone]
[3]
  grade 3-4 anemia: 37%
  grade 3-4 bone pain: 5%
  grade 3-4 fatigue: 6%
  grade 3-4 neutropenia: 16%
  grade 3-4 pneumonia: 8%
  grade 3-4 thrombocytopenia: 26%
OPM2 xenograft [4]; Study #1, ELO 0.5 mg/kg IP 2QW from d16, POM 5 mg/kg PO QD × 5 d16, 23, DEX 5 mg/kg IP QD × 7 from d16, target size 1 gm
  Median Days to Target Size: 28.0 days
OPM2 xenograft [4]; Study #1, ELO 0.5, POM 5, DEX 5 mg/kg
  LCK: 0.14
OPM2 xenograft [4]; [8]
  CR (complete tumor regressions): 0/8
  PR (partial tumor regressions): 0/8
OPM2 xenograft [4]; Study #1, ELO 0.5, POM 5, DEX 5 mg/kg, versus untreated mice
  TGI: 50.4%
OPM2 xenograft [4]; mouse, in vivo
  Max % Weight Loss: −5.7%
OPM2 xenograft [5]; Study #2, ELO 0.5 mg/kg IP 2QW from d12, POM 5 mg/kg PO QD × 5 d12, 19, DEX 5 mg/kg IP QD × 7 from d12, target size 1 gm
  Median Days to Target Size: 25.7 days
OPM2 xenograft [5]; Study #2, ELO 0.5, POM 5, DEX 5 mg/kg
  LCK: 0.63
OPM2 xenograft [5]; [9]
  CR (complete tumor regressions): 0/8
  PR (partial tumor regressions): 0/8
OPM2 xenograft [5]; Study #2, ELO 0.5, POM 5, DEX 5 mg/kg, versus untreated mice
  TGI: 62.8%
OPM2 xenograft [5]; mouse, in vivo
  Max % Weight Loss: −9.0%
